In patent US20100160228A1, “METHOD FOR INHIBITING OR STIMULATING ANGIOGENESIS IN AN INDIVIDUAL” (VALTION TEKNILLINEN TUTKIMUSKESKUS, priority 2007, published 2010):

Key:
Format in all cases: cell-based, human
HUVEC [1] = experiment: VEGF-induced HUVEC proliferation assay; conditions: subconfluent HUVEC on gelatine, compared to no peptide treatment, n=3
Description: FIG. 3. TCPTP activity controls VEGF-dependent responses in endothelial cells. (A) HUVEC were transfected with the constitutively active TCPTP (TC37) or vector control (pCG), stimulated or not with VEGF, and stained for VEGFR2 (red) and nuclei (blue) after fixation and permeabilization. Arrows indicate VEGFR2 vesicles. (B) HUVEC were treated as in (A) and subjected to trypsin digestion on ice. VEGFR2 protected from trypsin (=internalized pool) was detected by immunoblotting. The intensities of VEGFR2 bands were quantified and are expressed relative to pCG-VEGF control. A representative experiment out of 2 with similar results is shown. (C) HUVEC were transfected with no oligo, siRNA against TCPTP or a control siRNA, and TCPTP expression was measured using immunoblotting. […] (D) HUVEC were transfected as in (A) and chemotaxis towards VEGF was measured using a Transwell assay for 4 hours. […] Number of migrated cells was counted (mean±SEM, n=3).
(§1) Cell proliferation and survival assays. The number of viable HUVEC was analyzed with WST-1 reagent (Roche). Cell proliferation was measured with BrdU assay (Cell proliferation ELISA Biotrak system, Amersham) from siRNA-transfected HUVEC grown in RPMI1640+1% FBS+2 mM L-glutamine supplemented with 80 ng/ml VEGF.

HUVEC [2] = experiment: Survival of confluent HUVEC (WST-1); conditions: confluent HUVEC on gelatin, WST-1, FIG. 10B
Description: FIG. 10. […] (A) Serum-starved HUVEC were plated to confluency on gelatin and treated for 1 h with α1 integrin cytoplasmic tail fusion peptide (α1TAT) or TAT-scramble control fusion peptide (ScrTAT) (both at 200 nM) or not treated, followed by VEGF-induction (15 min) when indicated. Cell lysates were immunoblotted for phosphorylated VEGFR2 (or tubulin as a control). (B) Confluent HUVEC on gelatin were treated with VEGF in the presence or absence of α1TAT or ScrTAT peptide and the number of live cells was detected using WST-1 reagent (mean±SD, n=3). (C) α1TAT treatment has no effect on internalization of VEGFR2 in confluent HUVEC. HUVEC were plated to confluency on gelatin, stimulated or not with the TAT peptides (200 nM) and VEGF, and treated with trypsin on ice. Cells were lysed after inactivation of trypsin and the lysates were immunoblotted for detection of VEGFR2 protected from trypsin (=internalized pool). The intensity of VEGFR2 bands was quantitated using densitometry (a representative experiment out of 3 with similar results is shown).
as §1

HUVEC [3] = experiment: Time-lapse chemokinesis assay; conditions: HUVEC on gelatin, 4 hours time-lapse, peptide 200 nM, FIG. 5B
Description: FIG. 5. Controlled TCPTP activation inhibits VEGF-driven capillary formation, chemokinesis and chemotaxis. (A) HUVEC were cultured in fibrin gels and treated with or without VEGF and TAT peptides (200 nM). After 24 h the formation of capillary tubes was semiquantitatively scored. (B) HUVEC were plated on gelatin in the presence of the peptides (200 nM) or left untreated for 1 h. The cells were stimulated as indicated and migration of individual cells was tracked using time-lapse microscopy. Cumulative migration distance was plotted for randomly picked individual cells. (C) HUVEC were treated with 200 nM peptides and the transmigration assay was performed as in FIG. 3D. (D) HUVEC were transfected with siRNA against TCPTP or a control siRNA, and TCPTP expression was analysed with immunofluorescence. Equal exposures of TCPTP (green) and DAPI (blue) stainings are shown. 48 h post-transfection cells were subjected to transmigration assay as in […].
FIG. 9. TCPTP activation by α1-peptide inhibits VEGF induced chemokinesis. HUVEC were plated on gelatin in the presence of the peptides (200 nM) or left untreated for 1 h. The cells were stimulated as indicated and migration of individual cells was tracked using time-lapse microscopy. Representative images of individual cells overlayed with their migration patterns (different colours) at the indicated time points are shown.
Time-lapse chemokinesis assays. HUVEC were plated on gelatin-coated wells and allowed to attach for 1 h in the presence or absence of 200 nM α1TAT or ScrTAT and 20 ng/ml VEGF. Migration of individual cells was recorded at 5 min intervals for 4 h using 20× objective and digital video recording. The migration pathway of at least ten randomly picked cells was tracked using the Metamorph program. The cumulative migration distances were also plotted.

VEGFR2 = VEGFR2 kinase activity from HUVEC lysates (Kinase-Glo Plus); conditions: FIG. 4B
Description: (A) Serum-starved subconfluent HUVEC were treated for 1 h with α1 integrin cytoplasmic tail fusion peptide (α1TAT) or TAT-scramble control fusion peptide (ScrTAT) (both at 200 nM) followed by VEGF-induction (100 ng/ml, 15 min) where indicated. Cell lysates were resolved on SDS-PAGE and immunoblotted for phosphorylated VEGFR2 (or tubulin as a control). (B) HUVEC were treated as in (A) and VEGFR2 kinase activity (mean±SD, n=3) was measured from the cell lysates. **, p<0.01. (C) Recombinant, purified TCPTP was incubated with α1 or α2 cytoplasmic tail peptides (L-amino acids) or with α1 and scrambled TAT peptides (D-amino acids) and analyzed for phosphatase activity (mean±SD, n=3).
VEGFR2 kinase activity was studied using Kinase-Glo Plus kinase assay kit according to manufacturer's protocol (Promega) with 25 µM ATP. Briefly, HUVEC plated on gelatin were serum-starved overnight, treated with 400 nM α1TAT or ScrTAT or left untreated and stimulated with 100 ng/ml VEGF for 15 min, when indicated. The cells were lysed to ice-cold lysis buffer (1% NP-40, 20 mM Hepes pH 7.4, 150 mM NaCl, 10% glycerol, 2.5 mM EDTA, complete protease inhibitor (Roche) and phosphatase inhibitor coctails I and II (Sigma)). The lysates were incubated in anti-VEGFR2 or control IgG-coated wells with shaking for 2 h and washed 3 times with lysis buffer and 3 times with cold kinase assay buffer (20 mM Hepes pH 8, 0.1 mM Na3VO4, 10 mM MnCl2, 1 mM DTT). Kinase assay was performed for 10 min at +37° C.

YGRKKRRQRRRLKGWRFKLKPKFKEMK (SEQ ID NO 8) [ScrTAT, reference compound]
inhibition of VEGF-induced proliferation (HUVEC [1]): 4±4% | effect on survival of HUVEC in confluent cells (HUVEC [2]): no effects | inhibition of VEGF-induced chemokinesis (HUVEC [3]): no significant effect | increase of VEGFR2 kinase activity upon VEGF-stimulation (VEGFR2; HUVEC treated with no peptide or with scrambled control TAT peptide): about 10 fold

YGRKKRRQRRRWKLGFFKRPLKKKMEK (SEQ ID NO 3) [α1TAT]
inhibition of VEGF-induced proliferation (HUVEC [1]): 74±8% | effect on survival of HUVEC in confluent cells (HUVEC [2]): no effects | inhibition of VEGF-induced chemokinesis (HUVEC [3]): 76±4% | kinase activity of VEGFR2 in VEGF-treated HUVEC (VEGFR2; VEGF 100 ng/ml 15 min): completely abolished
